Data set [1] in a line: Intrinsic dissolution, USP 28 method <1087>. The data set is classed as physicochemical. The following applies: isotonic 50 mM acetate (pH 4.5) buffer at 37° C., 50 rpm; for Intrinsic dissolution Average: average of Run 1 and Run 2. As for the experimental part: The intrinsic dissolution (Table 3) was determined using USP 28 method <1087> (United States Pharmacopeia, The National Formulary, USP 28, 28th edition, Rockville, […]., 2005). Preparation of each test sample was performed as per USP 28 method <1087> by weighing and transferring the material to the die cavity and compressing for 1 minute at the minimum compression pressure necessary to form a nondisintegrating compacted pellet. The dissolution media used was isotonic 50 mM acetate buffer (pH 4.5) at 37° C. and speed was set at 50 rpm. Each run was halted at 5 min, irrespective of the percent dissolved. Each salt was run in duplicate.

Data set [2] can be described thus: Aqueous solubility (24 hour equilibrated suspension in water, HPLC). The note with it: for pH measured at saturation: saturated aqueous solution. The data set is classed as physicochemical. On the procedure: The aliquot was diluted and analyzed by HPLC (Waters). The data was compared to a standard curve generated from a set of solutions of known concentrations. The standard curve and the samples were analyzed using a HPLC using the following conditions: • Column: Symmetry C-18, 5 um, 15 cm×3.9 mm (Waters) • Mobile Phase: 0.05 M KH2PO4—0.01M Hexanesulfonic Acid/THF (1000:125) (Apparent pH 5.0) • Column Temp: 20-30° C. • Flow Rate: 1.0 mL/min • Wavelength: 305 nm • Run Time: 15 min (zopiclone retention time is 9.5-10 min)

Where [3] appears, read: water, equilibrated 24 hour at ambient.

Regarding `CN1CCN(C(=O)O[C@H]2c3nccnc3C(=O)N2c2ccc(Cl)cn2)CC1` [Free base, (S)-(6-(5-chloro-2-pyridyl)-5-[(4-methyl-1-piperazinyl)carbonyloxy]-7-oxo-6,7-dihydro-5H-pyrrolo[3,4-b]pyrazine)], in data set [1], the “Intrinsic dissolution Run 1” value is listed as 0.6 mgA/cm^2/min, the “Intrinsic dissolution Run 2” value was determined as 0.5 mgA/cm^2/min and the “Intrinsic dissolution Average” value was determined as 0.5 mgA/cm^2/min. The “pH measured at saturation” value in data set [2] worked out at 7.6. For the same molecule, in data set [2] (setting [3]), the Solubility was 0.2^1 mgA/mL.

As to `CN1CCN(C(=O)O[C@H]2c3nccnc3C(=O)N2c2ccc(Cl)cn2)CC1.O=S(=O)(O)c1ccccc1` [Besylate, (S)-Zopiclone Besylate], in data set [1], the “Intrinsic dissolution Run 1” value is 3.3 mgA/cm^2/min, the “Intrinsic dissolution Run 2” value was determined as 2.6 mgA/cm^2/min and the “Intrinsic dissolution Average” value is reported as 2.9 mgA/cm^2/min. For the same molecule, the “pH measured at saturation” value in data set [2] was 4.4. In addition, in data set [2] (setting [3]), the thermodynamic solubility (commonly the concentration in solution at equilibrium with solid) at 24 h turned out to be 34 mg/mL.
